From US20220041588A1, “SUBSTITUTED IMIDAZO[1,2-A]PYRIDINE AND [1,2,4]TRIAZOLO[1,5-A]PYRIDINE COMPOUNDS AS RET KINASE INHIBITORS” (FOCHON PHARMACEUTICALS, LTD., priority 2018, published 2022)

Experiments:
[1] = system: LC-2/ad (CCDCl6-RET) cells; assay: Cell proliferation assay (MTS), LC-2/ad cells; type: cell-based; settings: LC-2/ad cells (CCDCl6-RET), 72 h incubation, MTS readout
Method: (§1) MTS testing kit was purchased from Promega. The RPMI-1640, F12, F12K, Fetal bovine serum and Penicillin-Streptomycin were purchased from BI. Glutamine and Dimethyl sulfoxide (DMSO) were purchased from Sigma. TT cells were cultured in F12K supplemented with 10% FBS and LC-2/ad cells were cultured in HamF12: RPMI1640 (1:1) supplemented with 10% FBS and 2 mM Glutamine.
(§2) To investigate whether a compound is able to inhibit the activity of RET fusion and/or mutation in cells, a mechanism-based assay using TT (RET C634W) and LC-2/ad (CCDCl6-RET) cell lines was developed. In this assay, the inhibition of RET fusion and/or mutation was reflected by the inhibition of cell proliferation of TT and LC-2/ad cells. Cells were plated into 96-well plates at the optimized cell density (TT: 5000 cells/well; LC-2/ad: 5000 cells/well). Plates were incubated at 37° C., with 5% CO2 for 24 h. Compounds were serially diluted and added to the plates with the final concentrations as 10000, 3333.3, 1111.1, […], 123.5, 41.2, 13.7, 4.6 and 1.5 nM. Plates were incubated at 37° C., with 5% CO2 for 72 h. An aliquot of 20 μL MTS/100 μL medium mixture solution were added to each well and the plates were incubated for exactly 2 h. The reaction was stopped by adding 25 μL 10% SDS to each well. The absorbance was measured by a microplate reader at 490 nm and 650 nm (reference wavelength). IC50 was calculated using GraphPad Prism 5.0.

TT (RET C634W) cells = assay: Cell proliferation assay (MTS), TT cells; type: cell-based; settings: 72 h incubation, MTS readout
Method: as §1, §2

Compound	IC50 ([1]; Homo sapiens, LC-2-ad, 72 h) [µM]	IC50 (TT (RET C634W) cells; Homo sapiens, TT, 72 h) [µM]	IC50 (TT (RET C634W) cells) [µM]	IC50 [1] [µM]
COc1ccc(CN2CCN(c3ccc(-c4cc(-c5cnn(CCOC(C)C)c5)cc5ncc(C#N)n45)cn3)CC2)cn1 [Example 27, 7-(1-(2-isopropoxyethyl)-1H-pyrazol-4-yl)-5-(6-(4-((6-methoxypyridin-3-yl)methyl)piperazin-1-yl)pyridin-3-yl) imidazo[1,2-a]pyridine-3-carbonitrile]	0.039	0.065		
Cn1cc(-c2cc(-c3ccc(N4CCN(Cc5ccccc5)CC4)nc3)n3c(C#N)cnc3c2)cn1 [Example 33, 5-(6-(4-benzylpiperazin-1-yl)pyridin-3-yl)-7-(1-methyl-1H-pyrazol-4-yl) imidazo[1,2-a]pyridine-3-carbonitrile]	0.017	0.034		
Cn1cc(-c2cc(-c3ccc(N4CCN(Cc5ccn(C)n5)CC4)nc3)n3c(C#N)cnc3c2)cn1 [Example 37, 5-(6-(4-((1-methyl-1H-pyrazol-3-yl)methyl)piperazin-1-yl)pyridin-3-yl)-7-(1-methyl-1H-pyrazol-4-yl)imidazo [1,2-a]pyridine-3-carbonitrile]	0.041	0.045		
Cn1cc(-c2cc(-c3ccc(N4CCN(CCS(=O)(=O)c5ccccc5)CC4)nc3)n3c(C#N)cnc3c2)cn1 [Example 38, 7-(1-methyl-1H-pyrazol-4-yl)-5-(6-(4-(2-(phenylsulfonyl)ethyl)piperazin-1-yl)pyridin-3-yl)imidazo[1,2-a]pyr-idine-3-carbonitrile]	0.034	0.038		
Cn1cc(-c2cc(-c3ccc(N4CCN(C(=O)Cc5ccccn5)CC4)cc3)n3c(C#N)cnc3c2)cn1 [Example 45, 7-(1-methyl-1H-pyrazol-4-yl)-5-(4-(4-(2-(pyridin-2-yl)acetyl)piperazin-1-yl)phenyl)imidazo[1,2-a]pyridine-3-carbonitrile]	0.05	0.066		
Cn1cc(-c2cc(-c3ccc(N4CCN(C(=O)Cc5ccccn5)CC4)nc3)n3c(C#N)cnc3c2)cn1 [Example 46, 7-(1-methyl-1H-pyrazol-4-yl)-5-(6-(4-(2-(pyridin-2-yl)acetyl)piperazin-1-yl)pyridin-3-yl)imidazo[1,2-a]pyri-dine-3-carbonitrile]	0.036	0.037		
CC(C)CC(=O)N1CCN(c2ccc(-c3cc(-c4cnn(C)c4)cc4ncc(C#N)n34)cn2)CC1 [Example 48, 7-(1-methyl-1H-pyrazol-4-yl)-5-(6-(4-(3-methylbutanoyl)piperazin-1-yl)pyridin-3-yl)imidazo[1,2-a]pyridine-3-carbonitrile]	0.05	0.077		
COC(CNC(=O)N1CCN(c2ccc(-c3cc(-c4cnn(C)c4)cc4ncc(C#N)n34)cn2)CC1)C(C)C (centres unmarked) [Example 50, 4-(5-(3-cyano-7-(1-methyl-1H-pyrazol-4-yl)imidazo[1,2-a]pyridin-5-yl)pyridin-2-yl)-N-(2-methoxy-3-methyl-butyl)piperazine-1-carboxamide]	0.03	0.014		
CC(C)OCCN1CCN(c2ccc(-c3cc(-c4cnn(C)c4)cc4ncc(C#N)n34)cn2)CC1 [Example 51, 5-(6-(4-(2-isopropoxyethyl)piperazin-1-yl)pyridin-3-yl)-7-(1-methyl-1H-pyrazol-4-yl)imidazo[1,2-a]pyridine-3-carbonitrile]	0.04	0.044		
Cn1cc(-c2cc(-c3ccc(N4CCN(Cc5ccccn5)CC4)nc3)n3c(C#N)cnc3c2)cn1 [Example 52, 7-(1-methyl-1H-pyrazol-4-yl)-5-(6-(4-(pyridin-2-ylmethyl)piperazin-1-yl)pyridin-3-yl)imidazo[1,2-a]pyridine-3-carbonitrile]	0.042	0.024		
COc1ccc(CN2C3CC2CN(c2ccc(-c4cc(OCC5(O)CC5)cc5ncc(C#N)n45)cn2)C3)cn1 [Example 57A, 7-((1-Hydroxycyclopropyl)methoxy)-5-(6-(6-((6-methoxypyridin-3-yl)methyl)-3,6-diazabicyclo[3.1.1]heptan-3-yl)pyridin-3-yl)imidazo[1,2-a]pyridine-3-carbonitrile]	0.081		0.033	
COc1ccc(CN2C3CC2CN(c2ccc(-c4cc(OCC5(O)CC5)cc5ncc(C#N)n45)cn2)C3)cn1 [Example 57B, 7-((1-Hydroxycyclopropyl)methoxy)-5-(6-(6-((6-methoxypyridin-3-yl)methyl)-3,6-diazabicyclo[3.1.1]heptan-3-yl)pyridin-3-yl)imidazo[1,2-a]pyridine-3-carbonitrile]			0.127	0.115
COc1ccc(CN2C3CC2CN(c2ccc(-c4cc(OCCC(O)C(F)(F)F)cc5ncc(C#N)n45)cn2)C3)cn1 (centres unmarked) [Example 59, 5-(6-(6-((6-Methoxypyridin-3-yl)methyl)-3,6-diazabicyclo[3.1.1]heptan-3-yl)pyridin-3-yl)-7-(4,4,4-trifluoro-3-hydroxybutoxy)imidazo[1,2-a]pyridine-3-carbonitrile]	0.064	0.126		
COc1ccc(OC2CCN(c3ccc(-c4cc(OCC(C)(C)O)cc5ncc(C#N)n45)cn3)CC2)cn1 [Example 60, 7-(2-Hydroxy-2-methylpropoxy)-5-(6-(4-((6-methoxypyridin-3-yl)oxy)piperidin-1-yl)pyridin-3-yl)imidazo[1,2-a]pyridine-3-carbonitrile]	0.009	0.003		
CC(C)(O)COc1cc(-c2ccc(N3CCC(Oc4ccccn4)CC3)nc2)n2c(C#N)cnc2c1 [Example 64, 7-(2-hydroxy-2-methylpropoxy)-5-(6-(4-(pyridin-2-yloxy)piperidin-1-yl)pyridin-3-yl)imidazo[1,2-a]pyridine-3-carbonitrile]	0.028	0.087		
COc1ccc(OC2CCN(c3ccc(-c4cc(OCC(C)(C)O)cc5ncc(C#N)n45)cn3)CC2)nn1 [Example 65, 7-(2-hydroxy-2-methylpropoxy)-5-(6-(4-((6-methoxypyridazin-3-yl)oxy)piperidin-1-yl)pyridin-3-yl)imidazo[1,2-a]pyridine-3-carbonitrile]	0.034	0.038		
CC(C)(O)COc1cc(-c2ccc(N3CCC(O)(Cc4ccccc4)CC3)nc2)n2c(C#N)cnc2c1 [Example 66, 5-(6-(4-benzyl-4-hydroxypiperidin-1-yl)pyridin-3-yl)-7-(2-hydroxy-2-methylpro-poxy)imidazo[1,2-a]pyridine-3-carbonitrile]	0.055	0.117		
COc1ccc(OC2CCN(c3ccc(-c4cc(OCC5(O)CC5)cc5ncc(C#N)n45)cn3)CC2)cn1 [Example 68, 7-((1-hydroxycyclopropyl)methoxy)-5-(6-(4-((6-methoxypyridin-3-yl)oxy)piperidin-1-yl)pyridin-3-yl)imidazo[1,2-a]pyridine-3-carbonitrile]	0.01	0.005		
COc1ccc(OC2CCN(c3ccc(-c4cc(OCC(O)C(F)(F)F)cc5ncc(C#N)n45)cn3)CC2)cn1 (centres unmarked) [Example 69, 5-(6-(4-((6-methoxypyridin-3-yl)oxy)pi-peridin-1-yl)pyridin-3-yl)-7-(3,3,3-trifluoro-2-hydroxypropoxy)imidazo[1,2-a]pyri-dine-3-carbonitrile]	0.049	0.057		
